Series [1] is described as follows: Inhibition of class-1 HDAC in human SH-SY5Y cells assessed as induction of AcH3K9 level at 500 nM after 0.5 to 2 hrs by Western blot analysis. It counts as cell-based. To be noted: 0.5 µM. (In western blotting, separated proteins are transferred to a membrane and probed.)
A short description of series [2]: Cytotoxicity against human THLE2 cells after 72 hrs by vialight cell proliferation assay. The class given is cell-based, THLE-2. Particulars: read-out: LC50; call rule not given here.
The nature of series [3]: Effective permeability of the compound at 50 uM after 18 hrs by UV spectroscopy based PAMPA. The class given is ADME. To be noted: read-out: Peff. In general terms: The PAMPA barrier holds no transporters, so it reflects passive diffusion.
Series [4] concerns the target T1, Histone deacetylase 1 (Homo sapiens, UniProt Q13547). The series can be described thus: Inhibition of full length human recombinant C-terminal FLAG/His-tagged HDAC1 expressed in baculovirus infected sf9 cells using fluorogenic HDAC substrate 3 after 30 mins by fluorescence assay.
Series [5] addresses T2, Histone deacetylase 2 (Homo sapiens, UniProt Q92769). The series can be described thus: Inhibition of full length human recombinant C-terminal His-tagged HDAC2 expressed in baculovirus infected sf9 cells using fluorogenic HDAC substrate 3 after 30 mins by fluorescence assay.
The target of series [6] is T3, Protein deacetylase HDAC6 (Homo sapiens, UniProt Q9UBN7).
T3 sequence (Q9UBN7 whole entry): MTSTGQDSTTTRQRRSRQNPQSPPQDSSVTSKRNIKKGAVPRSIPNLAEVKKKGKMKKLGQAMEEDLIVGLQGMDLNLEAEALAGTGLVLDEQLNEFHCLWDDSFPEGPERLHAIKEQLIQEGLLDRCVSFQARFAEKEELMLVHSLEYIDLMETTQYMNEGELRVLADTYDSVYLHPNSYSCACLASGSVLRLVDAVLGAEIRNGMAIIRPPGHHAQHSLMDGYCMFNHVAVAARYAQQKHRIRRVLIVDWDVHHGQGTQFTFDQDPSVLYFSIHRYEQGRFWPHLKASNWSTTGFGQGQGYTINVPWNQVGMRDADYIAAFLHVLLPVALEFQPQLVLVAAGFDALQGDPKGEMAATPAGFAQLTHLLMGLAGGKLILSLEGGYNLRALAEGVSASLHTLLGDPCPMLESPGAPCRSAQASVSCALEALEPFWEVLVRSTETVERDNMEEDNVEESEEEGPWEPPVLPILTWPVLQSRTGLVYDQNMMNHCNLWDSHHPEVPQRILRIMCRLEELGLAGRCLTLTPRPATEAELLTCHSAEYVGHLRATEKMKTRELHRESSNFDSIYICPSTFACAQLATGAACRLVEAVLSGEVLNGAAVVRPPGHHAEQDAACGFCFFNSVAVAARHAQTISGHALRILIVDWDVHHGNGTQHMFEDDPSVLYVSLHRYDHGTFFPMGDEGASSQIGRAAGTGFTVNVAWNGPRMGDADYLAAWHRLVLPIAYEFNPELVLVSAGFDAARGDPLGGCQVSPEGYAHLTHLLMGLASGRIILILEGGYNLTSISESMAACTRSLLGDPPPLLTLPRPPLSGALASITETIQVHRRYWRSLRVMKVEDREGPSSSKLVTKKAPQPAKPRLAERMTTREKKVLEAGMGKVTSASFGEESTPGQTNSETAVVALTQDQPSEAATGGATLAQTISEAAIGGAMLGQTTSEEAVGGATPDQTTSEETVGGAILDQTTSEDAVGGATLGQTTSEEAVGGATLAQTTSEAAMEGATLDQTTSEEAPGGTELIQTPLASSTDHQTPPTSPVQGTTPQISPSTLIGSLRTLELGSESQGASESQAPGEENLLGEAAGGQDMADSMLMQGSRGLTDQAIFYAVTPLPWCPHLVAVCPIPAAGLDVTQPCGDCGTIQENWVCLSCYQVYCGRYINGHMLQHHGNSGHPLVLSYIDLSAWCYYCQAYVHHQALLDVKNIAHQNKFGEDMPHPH
In words: Inhibition of full length human recombinant N-terminal GST-tagged HDAC6 expressed in baculovirus infected sf9 cells using fluorogenic HDAC substrate 3 after 30 mins by fluorescence assay.

For series [7], the target named is T4, cGMP-specific 3',5'-cyclic phosphodiesterase (Homo sapiens, UniProt O76074). In words: Inhibition of full length human recombinant N-terminal GST-tagged PDE5A1 expressed in baculovirus infected sf9 cells using cGMP as substrate after 30 mins by fluorescence assay.
Series [8] can be described thus: Effective permeability of the compound at 10 uM after 18 hrs by LC-MS/MS based PAMPA. The class given is ADME. Particulars: read-out: Peff.
A short description of series [9]: cells. Particulars: Homo sapiens, SH-SY5Y, 2 h, read-out: FC.
Series [10] can be described thus: cells. Particulars: Homo sapiens, SH-SY5Y, 2 h, read-out: FC. This is another data set of the same source.
Series [11] in a line: cells. Particulars: Homo sapiens, SH-SY5Y, 2 h, read-out: FC. This is another data set of the same source.
The target in series [12] is T4, cGMP-specific 3',5'-cyclic phosphodiesterase. In words: Inhibition of PDE5A (unknown origin).
The target of series [13] is T1, Histone deacetylase 1. The series can be described thus: Inhibition of HDAC1 (unknown origin).
Series [14] concerns the target T2, Histone deacetylase 2. The class given is ADME.
The target in another series is Histone deacetylase 3 (Homo sapiens, UniProt O15379). The series can be described thus: Inhibition of HDAC3 (unknown origin).
Histone deacetylase 3, sequence (O15379 whole entry): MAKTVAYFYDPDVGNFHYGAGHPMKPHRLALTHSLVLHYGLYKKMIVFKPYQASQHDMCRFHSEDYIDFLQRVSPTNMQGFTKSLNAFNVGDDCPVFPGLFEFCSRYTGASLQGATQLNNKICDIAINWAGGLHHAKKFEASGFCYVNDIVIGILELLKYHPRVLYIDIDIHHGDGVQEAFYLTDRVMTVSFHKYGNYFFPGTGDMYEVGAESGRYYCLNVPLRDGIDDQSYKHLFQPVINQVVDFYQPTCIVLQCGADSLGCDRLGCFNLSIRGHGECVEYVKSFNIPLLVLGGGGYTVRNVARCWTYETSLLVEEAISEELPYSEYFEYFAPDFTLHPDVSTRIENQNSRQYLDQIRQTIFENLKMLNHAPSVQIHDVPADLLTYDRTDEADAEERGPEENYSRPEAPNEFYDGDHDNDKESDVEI
Series [15] concerns the target T3, Protein deacetylase HDAC6. In words: Inhibition of HDAC6 (unknown origin).
In series [16] the target is Histone deacetylase 3/Nuclear receptor corepressor 2 (HDAC3/NCoR2) (Homo sapiens, UniProt O15379). The series can be described thus: Inhibition of full length human recombinant C-terminal His-tagged HDAC3/N-terminal GST-tagged NCOR2 (95 to 489 residues) expressed in baculovirus infected sf9 cells using fluorogenic HDAC substrate 3 after 30 mins by fluorescence assay.
Histone deacetylase 3/Nuclear receptor corepressor 2 (HDAC3/NCoR2), sequence (O15379 whole entry, the tested form may be a part): as the sequence (O15379 whole entry) above
Histone deacetylase 3/Nuclear receptor corepressor 2 (HDAC3/NCoR2), sequence (Q9Y618 whole entry, further chain, the tested form may be a part): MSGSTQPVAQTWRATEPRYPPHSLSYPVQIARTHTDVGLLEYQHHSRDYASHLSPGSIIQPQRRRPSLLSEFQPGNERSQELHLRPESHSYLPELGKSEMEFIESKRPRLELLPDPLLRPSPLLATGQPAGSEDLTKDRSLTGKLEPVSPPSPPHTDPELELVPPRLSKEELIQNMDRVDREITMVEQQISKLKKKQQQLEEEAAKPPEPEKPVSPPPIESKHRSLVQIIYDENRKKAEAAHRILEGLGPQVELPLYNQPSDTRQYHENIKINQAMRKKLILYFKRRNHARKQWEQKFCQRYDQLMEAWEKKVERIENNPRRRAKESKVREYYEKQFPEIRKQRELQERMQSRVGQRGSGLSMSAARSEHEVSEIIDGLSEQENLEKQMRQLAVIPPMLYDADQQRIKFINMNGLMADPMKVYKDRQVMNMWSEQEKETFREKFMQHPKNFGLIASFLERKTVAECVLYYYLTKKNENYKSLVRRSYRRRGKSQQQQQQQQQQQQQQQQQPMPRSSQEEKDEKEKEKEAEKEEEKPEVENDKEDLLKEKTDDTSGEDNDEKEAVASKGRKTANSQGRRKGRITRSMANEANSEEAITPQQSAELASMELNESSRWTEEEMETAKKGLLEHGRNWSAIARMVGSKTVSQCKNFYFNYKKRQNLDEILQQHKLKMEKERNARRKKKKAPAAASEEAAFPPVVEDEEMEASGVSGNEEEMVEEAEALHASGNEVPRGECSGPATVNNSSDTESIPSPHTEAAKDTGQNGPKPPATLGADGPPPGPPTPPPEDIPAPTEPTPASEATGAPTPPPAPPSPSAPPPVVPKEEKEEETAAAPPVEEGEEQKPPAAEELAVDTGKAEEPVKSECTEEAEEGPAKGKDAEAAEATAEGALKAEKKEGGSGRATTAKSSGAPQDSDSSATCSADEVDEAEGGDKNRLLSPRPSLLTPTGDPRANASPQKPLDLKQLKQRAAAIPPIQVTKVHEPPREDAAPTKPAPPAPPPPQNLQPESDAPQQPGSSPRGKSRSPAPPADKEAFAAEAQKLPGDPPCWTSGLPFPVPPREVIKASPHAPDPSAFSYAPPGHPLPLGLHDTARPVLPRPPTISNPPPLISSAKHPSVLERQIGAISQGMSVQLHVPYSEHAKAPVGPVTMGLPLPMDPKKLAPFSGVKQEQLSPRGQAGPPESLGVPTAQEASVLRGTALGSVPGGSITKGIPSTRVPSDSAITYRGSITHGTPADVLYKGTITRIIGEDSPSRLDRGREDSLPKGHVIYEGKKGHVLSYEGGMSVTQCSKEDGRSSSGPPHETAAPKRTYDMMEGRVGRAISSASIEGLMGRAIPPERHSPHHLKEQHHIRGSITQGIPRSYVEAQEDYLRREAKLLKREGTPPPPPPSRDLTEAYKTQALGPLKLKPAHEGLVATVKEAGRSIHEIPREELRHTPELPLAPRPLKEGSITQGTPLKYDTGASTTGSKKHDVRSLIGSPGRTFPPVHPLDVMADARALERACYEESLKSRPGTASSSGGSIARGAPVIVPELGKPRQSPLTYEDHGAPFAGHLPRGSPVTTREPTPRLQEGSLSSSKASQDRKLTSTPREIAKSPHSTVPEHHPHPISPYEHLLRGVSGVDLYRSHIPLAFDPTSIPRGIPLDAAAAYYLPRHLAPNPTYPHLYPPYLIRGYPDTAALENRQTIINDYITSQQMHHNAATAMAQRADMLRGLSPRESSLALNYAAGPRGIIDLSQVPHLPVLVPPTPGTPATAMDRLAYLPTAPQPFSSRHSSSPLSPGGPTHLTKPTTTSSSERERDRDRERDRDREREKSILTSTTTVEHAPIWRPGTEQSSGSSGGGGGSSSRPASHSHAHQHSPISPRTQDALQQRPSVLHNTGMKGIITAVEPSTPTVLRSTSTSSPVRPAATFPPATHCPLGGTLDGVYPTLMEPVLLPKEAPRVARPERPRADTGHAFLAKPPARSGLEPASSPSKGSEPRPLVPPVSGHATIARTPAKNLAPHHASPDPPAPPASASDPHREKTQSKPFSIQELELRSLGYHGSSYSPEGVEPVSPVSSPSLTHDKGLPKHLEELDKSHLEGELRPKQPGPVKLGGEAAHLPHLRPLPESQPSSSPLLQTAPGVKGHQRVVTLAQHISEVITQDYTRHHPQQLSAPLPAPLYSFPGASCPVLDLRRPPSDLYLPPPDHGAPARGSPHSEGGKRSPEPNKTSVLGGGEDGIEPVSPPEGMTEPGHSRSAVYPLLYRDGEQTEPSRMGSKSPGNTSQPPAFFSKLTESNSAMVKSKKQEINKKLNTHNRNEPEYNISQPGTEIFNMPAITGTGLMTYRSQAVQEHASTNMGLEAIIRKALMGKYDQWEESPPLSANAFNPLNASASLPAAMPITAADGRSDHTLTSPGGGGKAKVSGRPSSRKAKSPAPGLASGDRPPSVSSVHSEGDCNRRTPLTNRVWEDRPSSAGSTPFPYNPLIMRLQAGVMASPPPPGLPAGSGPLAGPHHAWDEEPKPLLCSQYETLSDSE

For series [17], the target named is cGMP-inhibited 3',5'-cyclic phosphodiesterase 3A (Homo sapiens, UniProt Q14432). In words: Inhibition of PDE3A (unknown origin) using FAM-cGMP as substrate by fluorescence assay.
cGMP-inhibited 3',5'-cyclic phosphodiesterase 3A, sequence (Q14432 whole entry): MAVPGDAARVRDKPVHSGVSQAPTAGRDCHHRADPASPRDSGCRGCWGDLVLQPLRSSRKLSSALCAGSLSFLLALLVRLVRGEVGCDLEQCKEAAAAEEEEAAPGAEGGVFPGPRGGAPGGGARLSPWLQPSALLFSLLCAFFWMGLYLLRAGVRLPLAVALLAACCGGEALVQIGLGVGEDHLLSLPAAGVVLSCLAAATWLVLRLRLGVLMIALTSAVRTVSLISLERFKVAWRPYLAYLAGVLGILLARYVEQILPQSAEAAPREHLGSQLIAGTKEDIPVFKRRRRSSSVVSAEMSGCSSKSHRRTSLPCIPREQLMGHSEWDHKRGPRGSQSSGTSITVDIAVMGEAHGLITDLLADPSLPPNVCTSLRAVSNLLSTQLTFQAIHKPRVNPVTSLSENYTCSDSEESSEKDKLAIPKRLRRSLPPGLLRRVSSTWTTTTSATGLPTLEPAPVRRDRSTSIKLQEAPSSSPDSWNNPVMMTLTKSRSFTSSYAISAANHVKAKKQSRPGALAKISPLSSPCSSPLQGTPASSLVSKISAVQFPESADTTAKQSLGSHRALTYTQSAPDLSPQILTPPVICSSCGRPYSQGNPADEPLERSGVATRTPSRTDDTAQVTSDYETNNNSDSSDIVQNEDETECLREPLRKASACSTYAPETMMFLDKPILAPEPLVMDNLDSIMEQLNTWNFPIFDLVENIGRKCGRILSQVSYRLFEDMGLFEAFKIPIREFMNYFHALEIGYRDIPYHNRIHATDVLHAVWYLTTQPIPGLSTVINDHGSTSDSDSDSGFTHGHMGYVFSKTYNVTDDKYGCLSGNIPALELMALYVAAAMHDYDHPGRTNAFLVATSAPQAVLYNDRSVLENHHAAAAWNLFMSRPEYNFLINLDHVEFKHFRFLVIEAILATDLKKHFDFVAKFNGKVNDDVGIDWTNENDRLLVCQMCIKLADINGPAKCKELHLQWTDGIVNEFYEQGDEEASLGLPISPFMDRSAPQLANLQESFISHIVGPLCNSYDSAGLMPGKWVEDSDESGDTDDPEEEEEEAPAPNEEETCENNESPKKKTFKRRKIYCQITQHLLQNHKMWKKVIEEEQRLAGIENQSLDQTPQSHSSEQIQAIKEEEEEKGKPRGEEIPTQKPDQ

A value given as a limit tells only on which side of the number the result lay.

T1 sequence (Q13547 whole entry): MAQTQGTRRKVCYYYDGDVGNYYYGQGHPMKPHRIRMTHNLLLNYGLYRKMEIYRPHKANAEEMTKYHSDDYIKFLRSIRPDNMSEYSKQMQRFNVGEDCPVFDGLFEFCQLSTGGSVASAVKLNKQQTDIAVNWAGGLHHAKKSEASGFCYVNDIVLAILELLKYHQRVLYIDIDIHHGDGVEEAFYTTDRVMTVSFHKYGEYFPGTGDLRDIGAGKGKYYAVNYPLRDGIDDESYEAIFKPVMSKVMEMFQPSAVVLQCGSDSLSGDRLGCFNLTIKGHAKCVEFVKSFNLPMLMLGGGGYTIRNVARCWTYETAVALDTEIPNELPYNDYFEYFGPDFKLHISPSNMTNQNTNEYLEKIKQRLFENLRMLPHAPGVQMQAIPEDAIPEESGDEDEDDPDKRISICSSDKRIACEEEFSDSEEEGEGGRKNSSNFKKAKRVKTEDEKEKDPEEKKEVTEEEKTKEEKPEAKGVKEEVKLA
T2 sequence (Q92769 whole entry): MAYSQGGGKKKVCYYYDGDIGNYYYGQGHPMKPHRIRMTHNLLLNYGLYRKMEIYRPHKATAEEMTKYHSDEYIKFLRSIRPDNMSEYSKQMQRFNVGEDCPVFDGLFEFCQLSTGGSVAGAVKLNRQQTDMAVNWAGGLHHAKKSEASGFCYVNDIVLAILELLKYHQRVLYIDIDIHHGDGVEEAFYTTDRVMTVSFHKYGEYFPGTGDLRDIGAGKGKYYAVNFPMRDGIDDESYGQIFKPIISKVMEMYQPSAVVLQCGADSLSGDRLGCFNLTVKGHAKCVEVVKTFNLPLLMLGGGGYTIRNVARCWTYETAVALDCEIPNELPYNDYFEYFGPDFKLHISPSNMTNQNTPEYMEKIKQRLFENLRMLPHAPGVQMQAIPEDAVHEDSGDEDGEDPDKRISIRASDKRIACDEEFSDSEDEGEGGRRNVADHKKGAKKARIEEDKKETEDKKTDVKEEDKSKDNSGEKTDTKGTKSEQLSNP

For the molecule `CN1CCc2c(c3ccccc3n2Cc2ccc(C(=O)NO)cc2)C1` [TUBASTATIN A], the “inhibition (INH)” value in series [1] is recorded as “Not Active”. Besides, the CC50 at 72 h in series [2] is […]. In addition, the Papp at 18 h, 50 µM in series [3] worked out at 1.77 ×10⁻⁶ cm/s.
Consider `CCCc1nc(C)c2c(=O)[nH]c(-c3cc(-c4ccc(C(=O)NO)cc4)ccc3OCC)nn12`, for which the IC50 at Histone deacetylase 1 [4] is 4100 nM; at Histone deacetylase 2 [5] it was more than 20000 nM; in [6], 326 nM; in [7], 2 nM. For the same molecule, in [2], the CC50 at 72 h is more than 100000 nM. Further, the Papp at 18 h, 10 µM in series [8] is 2.7 ×10⁻⁶ cm/s. Moreover, in the series “cells [9]”, the fold induction at 0.1 µM is 1.3. The fold induction at 0.5 µM in the series “cells [10]” came to 2.3. For the same molecule, the fold induction at 1 µM in “cells [11]” stood at 2.8.
Regarding `CCCc1nc(C)c2c(=O)[nH]c(-c3cc(CC4CC(C(=O)NO)C4)ccc3OCC)nn12` (stereo not given), the IC50 in [12] was 5 nM; against Histone deacetylase 1 [13], 286 nM; at Histone deacetylase 2 [14], 1260 nM; on Histone deacetylase 3, 854 nM; in series [15], 110 nM.
With `CCCc1nn(C)c2c(=O)[nH]c(-c3cc(Cc4ccc(CC(=O)NO)cc4)ccc3OCC)nc12`, the IC50 at Histone deacetylase 1 [4] was more than 20000 nM; on Histone deacetylase 2 [5], more than 20000 nM; in series [16], more than 20000 nM; in series [6], 162 nM; in [7] it was 15 nM. Also, the CC50 at 72 h in series [2] stood at 5490 nM. Moreover, in [3], the Papp at 18 h, 50 µM was found to be 2.94 ×10⁻⁶ cm/s.
`CCCc1nn(C)c2c(=O)[nH]c(-c3cc(Cc4ccc(C(=O)NO)cc4)ccc3OCC)nc12`: the IC50 at Histone deacetylase 1 [4] was 673 nM; at Histone deacetylase 2 [5] it was 3860 nM; in series [16] it was 1350 nM; in series [6] it was 62 nM; in [7] it was 48 nM. In series [2], the CC50 at 72 h turned out to be 14200 nM. In series [3], the Papp at 18 h, 50 µM amounted to 2.16 ×10⁻⁶ cm/s. Further, the fold induction at 0.1 µM in “cells [9]” stood at 1.1. Further, the fold induction at 0.5 µM in “cells [10]” turned out to be 3.2. Further, in the series “cells [11]”, the fold induction at 1 µM was 6.5.
`CCCc1nn(C)c2c(=O)[nH]c(-c3cc(CC4CC(C(=O)NO)C4)ccc3OCC)nc12` (stereo not given) displayed an IC50 in series [17] of 1800 nM.

The term IC50 denotes the concentration needed to halve the response being measured.

The values above are taken from ChEMBL document CHEMBL4196089, “Design, synthesis, biological evaluation and in vivo testing of dual phosphodiesterase 5 (PDE5) and histone deacetylase 6 (HDAC6)-selective inhibitors for the treatment of Alzheimer's disease” (Eur J Med Chem, 2018).
